Earlier results on two molecules are cited in patent publication US6376005B2, “Antimicrobial composition for food and beverage products” (The Procter & Gamble Company, priority 1997, dated 2002).

Molecules are shown by their SMILES.

Turning to `C/C=C/C=C/C(=O)[O-].[K+]` [potassium sorbate], in the data set on Zygosaccharomyces bailii, the “effectiveness against yeasts such as Zygosaccharomyces bailii” value is given as “not effective”.

For the molecule `C[C@@H]1C/C=C/C=C/C=C/C=C/[C@H](O[C@@H]2O[C@H](C)[C@@H](O)[C@H](N)[C@@H]2O)C[C@@H]2O[C@](O)(C[C@@H](O)C[C@H]3O[C@@H]3/C=C/C(=O)O1)C[C@H](O)[C@H]2C(=O)O` [natamycin], the effectiveness against bacteria entry with bacteria is given as “not effective”. In addition, in the data set with Zygosaccharomyces bailii, the “effectiveness against yeasts such as Zygosaccharomyces bailii” value is given as “particularly effective”.
